What was measured:
[1] = biological target: Vascular endothelial growth factor receptor 2 (Homo sapiens) (UniProt P35968); assay: VEGFR2 DiscoveRx kinase panel; details: Compound concentration 1.0 uM
[2] = biological target: Fibroblast growth factor receptor 1 (Homo sapiens) (UniProt P11362); assay: FGFR1 DiscoveRx kinase panel; details: Compound concentration 1.0 uM
[3] = biological target: Platelet-derived growth factor receptor beta (Homo sapiens) (UniProt P09619); assay: PDGFRB DiscoveRx kinase panel; details: Compound concentration 1.0 uM
[4] = biological target: Dual specificity mitogen-activated protein kinase kinase 3 (Homo sapiens) (UniProt P46734); assay: MEK3 DiscoveRx kinase panel; details: Compound concentration 1.0 uM
[5] = biological target: 5-hydroxytryptamine receptor 1B (Homo sapiens) (UniProt P28222); assay: Serotonin (5-Hydroxytryptamine) 5-HT1B Eurofins-Panlabs radioligand binding assay; design: ligand concentration 1 nM; details: Compound concentration 10.0 uM
[6] = biological target: Receptor-type tyrosine-protein kinase FLT3 (Homo sapiens) (UniProt P36888); assay: FLT3 DiscoveRx kinase panel; details: Compound concentration 1.0 uM
[7] = biological target: Protein kinase C theta type (Homo sapiens) (UniProt Q04759); assay: PRKCQ DiscoveRx kinase panel; details: Compound concentration 1.0 uM
Chain of Protein kinase C theta type (Homo sapiens) (Q04759 whole entry, looked up): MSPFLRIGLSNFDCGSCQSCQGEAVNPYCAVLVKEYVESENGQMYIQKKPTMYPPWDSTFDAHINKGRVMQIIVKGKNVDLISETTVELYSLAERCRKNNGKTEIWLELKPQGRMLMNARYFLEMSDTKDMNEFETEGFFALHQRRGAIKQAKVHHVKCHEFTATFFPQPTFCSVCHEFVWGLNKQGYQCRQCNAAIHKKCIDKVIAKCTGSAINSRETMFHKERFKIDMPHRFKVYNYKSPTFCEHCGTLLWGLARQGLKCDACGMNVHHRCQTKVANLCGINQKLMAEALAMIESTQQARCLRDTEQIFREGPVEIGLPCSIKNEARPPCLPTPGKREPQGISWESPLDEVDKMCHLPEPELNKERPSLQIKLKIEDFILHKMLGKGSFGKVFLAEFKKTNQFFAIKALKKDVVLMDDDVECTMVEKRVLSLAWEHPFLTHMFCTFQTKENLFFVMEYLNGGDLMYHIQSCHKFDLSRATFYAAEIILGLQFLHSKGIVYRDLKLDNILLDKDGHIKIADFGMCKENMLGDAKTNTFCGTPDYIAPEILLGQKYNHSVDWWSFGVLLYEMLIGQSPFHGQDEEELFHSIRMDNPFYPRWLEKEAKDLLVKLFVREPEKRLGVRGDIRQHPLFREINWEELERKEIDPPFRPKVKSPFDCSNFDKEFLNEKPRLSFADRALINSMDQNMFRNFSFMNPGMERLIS

Chain of Vascular endothelial growth factor receptor 2 (Homo sapiens) (P35968 whole entry): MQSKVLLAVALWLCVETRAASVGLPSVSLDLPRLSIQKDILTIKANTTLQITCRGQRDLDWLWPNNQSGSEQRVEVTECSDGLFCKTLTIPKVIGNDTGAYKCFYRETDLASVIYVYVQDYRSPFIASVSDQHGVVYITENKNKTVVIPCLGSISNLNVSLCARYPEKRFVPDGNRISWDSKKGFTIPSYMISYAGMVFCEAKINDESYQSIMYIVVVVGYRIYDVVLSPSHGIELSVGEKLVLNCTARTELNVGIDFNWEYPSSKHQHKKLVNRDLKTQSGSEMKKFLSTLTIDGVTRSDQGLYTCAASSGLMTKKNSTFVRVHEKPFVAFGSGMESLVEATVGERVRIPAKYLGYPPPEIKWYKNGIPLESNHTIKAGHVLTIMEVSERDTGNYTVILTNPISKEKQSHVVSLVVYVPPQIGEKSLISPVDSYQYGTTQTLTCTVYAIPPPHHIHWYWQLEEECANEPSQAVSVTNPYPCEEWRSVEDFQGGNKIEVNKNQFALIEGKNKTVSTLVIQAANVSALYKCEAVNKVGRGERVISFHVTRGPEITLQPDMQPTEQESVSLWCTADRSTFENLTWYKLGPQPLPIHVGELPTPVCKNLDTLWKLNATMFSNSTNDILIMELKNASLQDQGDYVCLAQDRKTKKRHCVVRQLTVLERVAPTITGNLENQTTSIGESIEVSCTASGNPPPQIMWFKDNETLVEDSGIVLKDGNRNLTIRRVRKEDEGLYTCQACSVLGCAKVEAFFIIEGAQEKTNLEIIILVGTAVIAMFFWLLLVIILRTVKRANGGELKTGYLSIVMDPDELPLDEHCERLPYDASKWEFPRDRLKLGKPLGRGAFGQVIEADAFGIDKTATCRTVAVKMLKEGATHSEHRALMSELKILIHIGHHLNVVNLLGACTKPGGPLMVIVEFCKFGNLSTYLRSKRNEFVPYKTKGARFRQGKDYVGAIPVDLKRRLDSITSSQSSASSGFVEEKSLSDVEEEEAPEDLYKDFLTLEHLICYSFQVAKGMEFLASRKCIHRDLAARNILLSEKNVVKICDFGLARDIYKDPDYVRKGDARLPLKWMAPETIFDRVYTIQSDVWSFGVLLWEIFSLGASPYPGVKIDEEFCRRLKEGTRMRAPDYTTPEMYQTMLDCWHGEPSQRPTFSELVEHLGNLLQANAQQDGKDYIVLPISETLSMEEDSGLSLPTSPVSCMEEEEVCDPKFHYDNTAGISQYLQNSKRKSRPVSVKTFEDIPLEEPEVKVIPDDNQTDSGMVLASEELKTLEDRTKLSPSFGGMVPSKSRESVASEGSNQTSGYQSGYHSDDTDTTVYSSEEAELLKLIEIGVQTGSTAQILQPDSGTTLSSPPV
Chain of Platelet-derived growth factor receptor beta (Homo sapiens) (P09619 whole entry): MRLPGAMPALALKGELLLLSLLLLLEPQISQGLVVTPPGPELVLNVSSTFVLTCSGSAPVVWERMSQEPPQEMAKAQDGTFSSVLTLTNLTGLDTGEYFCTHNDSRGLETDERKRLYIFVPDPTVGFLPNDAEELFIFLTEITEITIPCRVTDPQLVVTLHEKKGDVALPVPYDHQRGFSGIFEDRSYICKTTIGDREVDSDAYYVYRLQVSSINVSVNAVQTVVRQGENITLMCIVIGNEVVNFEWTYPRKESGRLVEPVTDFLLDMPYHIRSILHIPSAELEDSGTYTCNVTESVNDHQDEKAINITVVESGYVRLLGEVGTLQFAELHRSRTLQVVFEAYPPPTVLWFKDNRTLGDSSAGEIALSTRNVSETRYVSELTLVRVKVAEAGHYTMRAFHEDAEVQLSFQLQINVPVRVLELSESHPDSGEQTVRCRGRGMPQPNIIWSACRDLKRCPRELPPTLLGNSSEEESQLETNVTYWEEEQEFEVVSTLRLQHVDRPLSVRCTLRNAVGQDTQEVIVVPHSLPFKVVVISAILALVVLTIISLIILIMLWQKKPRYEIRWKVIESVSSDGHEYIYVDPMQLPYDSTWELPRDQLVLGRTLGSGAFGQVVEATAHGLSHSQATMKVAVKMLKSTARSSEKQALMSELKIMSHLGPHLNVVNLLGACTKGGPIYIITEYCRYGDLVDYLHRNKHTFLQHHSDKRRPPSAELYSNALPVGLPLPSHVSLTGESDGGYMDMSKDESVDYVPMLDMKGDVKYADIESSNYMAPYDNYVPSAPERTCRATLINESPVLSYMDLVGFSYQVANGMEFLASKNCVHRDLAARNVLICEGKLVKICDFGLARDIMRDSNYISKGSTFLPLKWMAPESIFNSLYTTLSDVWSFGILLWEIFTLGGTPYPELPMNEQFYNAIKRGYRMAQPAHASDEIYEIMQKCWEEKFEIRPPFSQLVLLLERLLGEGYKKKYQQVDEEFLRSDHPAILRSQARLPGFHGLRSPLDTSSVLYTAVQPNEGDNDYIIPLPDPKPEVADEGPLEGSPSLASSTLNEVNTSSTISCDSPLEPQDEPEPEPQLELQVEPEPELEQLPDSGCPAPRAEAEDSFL
Chain of Fibroblast growth factor receptor 1 (Homo sapiens) (P11362 22-822 limits assumed): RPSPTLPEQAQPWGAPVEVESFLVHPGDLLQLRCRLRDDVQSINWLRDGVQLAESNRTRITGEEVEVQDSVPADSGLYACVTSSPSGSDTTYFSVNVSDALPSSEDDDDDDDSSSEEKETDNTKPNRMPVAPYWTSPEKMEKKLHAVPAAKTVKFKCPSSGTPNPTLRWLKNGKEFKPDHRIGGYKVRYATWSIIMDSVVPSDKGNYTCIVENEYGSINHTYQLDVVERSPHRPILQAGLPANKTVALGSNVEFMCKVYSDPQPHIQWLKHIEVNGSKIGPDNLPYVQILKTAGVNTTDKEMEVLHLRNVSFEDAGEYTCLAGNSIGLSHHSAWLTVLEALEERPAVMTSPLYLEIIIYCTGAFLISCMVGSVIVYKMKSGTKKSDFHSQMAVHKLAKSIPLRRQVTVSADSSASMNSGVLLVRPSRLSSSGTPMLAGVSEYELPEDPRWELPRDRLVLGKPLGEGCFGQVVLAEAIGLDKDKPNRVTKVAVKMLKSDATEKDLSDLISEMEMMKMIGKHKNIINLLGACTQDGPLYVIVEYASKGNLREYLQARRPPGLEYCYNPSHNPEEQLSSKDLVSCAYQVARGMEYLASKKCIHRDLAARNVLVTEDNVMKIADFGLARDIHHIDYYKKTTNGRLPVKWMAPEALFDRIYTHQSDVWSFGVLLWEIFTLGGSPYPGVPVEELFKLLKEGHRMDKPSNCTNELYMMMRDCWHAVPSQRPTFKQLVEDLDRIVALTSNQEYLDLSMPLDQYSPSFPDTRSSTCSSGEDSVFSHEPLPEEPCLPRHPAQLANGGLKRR
Chain of Receptor-type tyrosine-protein kinase FLT3 (Homo sapiens) (P36888 whole entry): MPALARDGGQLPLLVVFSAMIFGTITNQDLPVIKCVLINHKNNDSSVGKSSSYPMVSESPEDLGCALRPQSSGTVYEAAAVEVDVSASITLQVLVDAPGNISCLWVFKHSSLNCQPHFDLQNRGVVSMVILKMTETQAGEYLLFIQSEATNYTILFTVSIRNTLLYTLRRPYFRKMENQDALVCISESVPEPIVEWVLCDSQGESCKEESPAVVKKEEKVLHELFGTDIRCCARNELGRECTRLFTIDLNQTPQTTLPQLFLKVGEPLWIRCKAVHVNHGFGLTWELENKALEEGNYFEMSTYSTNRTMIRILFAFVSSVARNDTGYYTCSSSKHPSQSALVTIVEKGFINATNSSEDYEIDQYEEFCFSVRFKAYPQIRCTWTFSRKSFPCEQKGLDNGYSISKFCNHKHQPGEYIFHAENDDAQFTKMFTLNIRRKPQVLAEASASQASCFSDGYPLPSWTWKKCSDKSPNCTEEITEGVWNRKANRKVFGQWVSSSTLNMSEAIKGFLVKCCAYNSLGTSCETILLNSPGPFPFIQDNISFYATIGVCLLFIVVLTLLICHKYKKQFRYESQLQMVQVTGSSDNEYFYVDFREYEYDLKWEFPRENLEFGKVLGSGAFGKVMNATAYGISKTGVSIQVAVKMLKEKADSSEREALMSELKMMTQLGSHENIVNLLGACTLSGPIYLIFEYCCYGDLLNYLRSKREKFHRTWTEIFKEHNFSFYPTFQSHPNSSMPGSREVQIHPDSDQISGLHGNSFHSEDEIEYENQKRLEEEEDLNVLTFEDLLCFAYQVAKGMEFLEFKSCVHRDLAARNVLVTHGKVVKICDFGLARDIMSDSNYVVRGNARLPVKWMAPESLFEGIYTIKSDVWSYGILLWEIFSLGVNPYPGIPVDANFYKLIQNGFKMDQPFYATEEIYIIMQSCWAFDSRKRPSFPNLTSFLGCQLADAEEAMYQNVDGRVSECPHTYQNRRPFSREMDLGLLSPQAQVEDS

Structure (SMILES): COc1cnccc1Nc1nc(-c2nn(Cc3c(F)cc(OCCO)cc3F)c3ccccc23)ncc1OC
- residual activity [1]: 100%
- residual activity [2]: 87%
- residual activity [3]: 77%
- residual activity [4]: 100%
- inhibition [5]: 15%
- residual activity [6]: 88%
- residual activity [7]: 77%
